How the values were obtained:
[1] = tested on: cerebral cortical mixed neuronal cells or hippocampal neurons; assay: Oxygen glucose deprivation (OGD) of neurons in culture, cell viability; assay type: cell-based, rat; conditions: for neuroprotection against OGD-induced neuronal cell death: 200 nM, 500 nM or 1 μM added after 90 mins OGD and 2 h reoxygenation, Hoechst, calcein or MTT
Text: Primary cultures of cortical and hippocampal neurons were harvested from 18-day-old embryos (E18) taken from timed-pregnant, two-month-old Sprague-Dawley (SD) rats (Charles River Lab., Wilmington, Mass.). Briefly, timed-pregnant SD rats were euthanized and embryos were collected in sterile conditions. Embryonic brains were dissected out by forceps on ice and placed in a petri dish containing ice-cold Hank's Balanced Salt Solution (HBSS) (GIBCO). Meninges were removed under a dissecting microscope and cortical tissues were chopped into small pieces with micro-spring scissors. These tissues were transferred to 15 ml tubes containing trypsin-EDTA (0.025% in HBSS) and DNase I. The tubes were incubated in 37° C. chamber for 15 mins and were agitated every 5 mins. After stopping the trypsinization with 5 ml 10% FBS, these tissues were triturated 15 times with a fire polished Pasteur pipet. Cell clumps were left to settle for 2 mins and the supernatant was transferred to a 15 ml Eppendorf tube. The supernatant was filtered through a 70 μm pore-sized filter (Corning cell strainer) and centrifuged for 5 mins at 1000 rpm. The cells were then resuspended in Neurobasal medium (GIBCO) containing 2% B27 (GIBCO) and 2% N2 (GIBCO) supplements, along with 0.5 mM glutamine, 50 U/ml penicillin/streptomycin.
Cells were counted using a Neubauer hemocytometer. 1×10^6 cells were seeded on poly-D-lysine-coated 12 well cell culture dish (CORNING) and cultured in incubator (37° C., 5% CO2). Culture medium was first replaced after 24 h, then half of the medium was replaced with fresh medium every three days. As a result, approximately, 90% purity of neurons was obtained as determined by class-III-β tubulin, GFAP and Hoechst 33258 staining. Cells were maintained in culture for about 2 weeks until they were exposed to uncompensated oxidative stress, OGD, or NMDA excitotoxicity.
An in vitro oxygen glucose deprivation (OGD) model was established. Primary cortical neurons were cultured from SD rat embryos. On day in vitro (DIV) 12, cells were washed with phosphate-buffered saline and incubated in glucose-free Neurobasal medium (GIBCO) for 30 mins. The cells were then placed in a modular incubator chamber and incubated in an anaerobic chamber (95% N2, 5% CO2) at 37° C. for 90 mins for OGD.
After 90 mins of OGD exposure, cells were returned to the original medium (Neurobasal medium (GIBCO) containing 2% B27 (GIBCO) and 2% N2 (GIBCO) supplements, along with 0.5 mM glutamine, 50 U/ml penicillin/streptomycin) and placed in a normoxic chamber (37° C., 5% CO2) for 2 h. […] a normoxic chamber (37° C., 5% CO2) for 12 h, after which cells were sampled and assayed for cell viability using different methods as previously described (25-28). Cerebral cortical mixed neuronal cells or hippocampal cells in culture were exposed to either NMDA or uncompensated oxidative stress (UOS) for 12 h by addition of either NMDA (25 μM, 50 μM, or 100 μM) concentration or by the addition of TNFα (10 ng/mL) and H2O2 (50 μM, 100 μM, or 200 μM). Cell viability and neuroprotection in the presence of ELV-N32, ELV-N34, 32:6, or 34:6 were assayed after 12 h.
Cells were washed with 1× Dulbecco's Phosphate Buffered Saline (DPBS) containing no calcium or magnesium (GIBCO) and fixed for 10 mins using ice-cold 4% paraformaldehyde (PFA) followed by 15 mins incubation in 100% methanol. Cells were washed with 1× Phosphate Buffered Saline (PBS) pH 7.4 (GIBCO) and incubated in PBS containing 20 μM Hoechst 33258 (Molecular Probes) for 20 mins. Cells were then washed 3 times with 1×PBS and stored in 1×PBS at 4° C. until they were imaged for microscopy.
One 4×4 tile mosaic was acquired from the center of each well using a Zeiss 510 Meta laser confocal microscope and LSM 510 Meta software. Images were imported into image analysis software ImageJ (National Institutes of Health, Bethesda, Md.) and batch processed using custom macros. […]

ARPE-19 cells = assay: UOS-induced apoptosis in ARPE-19 cells (Hoechst-positive pyknotic cells); assay type: cell-based, human; conditions: for protection against UOS: free fatty acids, ARPE-19 cells; for UOS-induced apoptosis: 200 nM; for UOS-induced apoptotic cell death: concentration-dependent 50-500 nM, highest inhibition at 500 nM, lowest at 50 nM
Method: FIGS. 6A and 6B depicts immunostaining of primary human RPE cells using specific markers ZO-1 (Zona occludens-1), RPE65, MITF (Micro-ophtalmia-associated Transcription Factor) and β-catenin, as well as light microscopy depicting primary human RPE cell morphology at different passages in culture. ARPE-19 cells were grown and maintained in T-75 mM flasks in DMEM F-12 medium containing 10% FBS and incubated at 37° C. with a constant supply of 5% CO2. Cells at 75-80% confluence (72 h growth in DMEM/F12+10% FBS) in 6-well plates were serum-starved for 8 h before exposure. […] The serum-starved cells were treated with TNF-α (Sigma-Aldrich, St. Louis, Mo.) (10 ng/ml) and H2O2 (600 μM) to induce oxidative stress and challenged with increasing concentrations (50-500 nM) of VLC-PUFA (C32:6n3 and C34:6n3) simultaneously with oxidative stress for 16 h (apoptosis) and 6 h (Western-blot) before detection of apoptosis and harvesting for protein analysis. In some experiments, DHA at a concentration of 100 nM and 15-LOX-1 inhibitor PD146176 at a concentration of 1 μM was added to treat the RPE cells under stress. Cell extracts were made and protein concentrations adjusted by Bio-Rad (Hercules, Calif.) protein reagent and used for Western blot analysis. To assess cell death, hRPE and ARPE-19 cells were fixed with methanol for 15 mins, washed with 1×PBS then loaded with 2 μM Hoechst dissolved in a Locke's solution (Promega) and incubated for another 15 mins before imaging. Cells were then viewed by using a Zeiss LSM 510 confocal microscope under UV fluorescence. Images were recorded and cell apoptosis was assessed by using an automated unbiased method.

[2] = 250 nM added after OGD exposure
[3] = 500 nM, 90 min OGD, hippocampal (DIV 12) or cortical (DIV 28) culture

SMILES	neuroprotection after OGD by VLC-PUFA precursor [1, 2]	neuroprotection after OGD by VLC-PUFA precursor [1, 3]	protection against UOS (ARPE-19 cells)	neuroprotection against OGD-induced neuronal cell death [1]	UOS-induced apoptosis (ARPE-19 cells)	UOS-induced apoptotic cell death (ARPE-19 cells)
CC/C=C\C/C=C\C/C=C\C/C=C\C/C=C\C/C=C\CCCCCCCCCCCCC(=O)O [32:6n3, (14Z,17Z,20Z,23Z,26Z,29Z)-dotriaconta-14,17,20,23,26,29-hexaenoic acid]	provide neuroprotection	showed neuroprotection	elicit protection against UOS			
CC/C=C\C/C=C\C/C=C\C/C=C\C/C=C\C/C=C\CCCCCCCCCCCCCCC(=O)O [34:6n3, (16Z,19Z,22Z,25Z,28Z,31Z)-tetratriaconta-16,19,22,25,28,31-hexaenoic acid]	elicit neuroprotection	showed neuroprotection	elicit protection against UOS			
CC/C=C\C[C@H](O)\C=C/C=C/C=C/[C@H](O)C/C=C\C/C=C\CCCCCCCCCCCCC(=O)OC [ELV-N32-Me, methyl (14Z,17Z,20R,21E,23E,25Z,27S,29Z)-20,27-dihydroxydotriaconta-14,17,21,23,25,29-hexaenoate]				elicited neuroprotection		
CC/C=C\C[C@H](O)\C=C/C=C/C=C/[C@H](O)C/C=C\C/C=C\CCCCCCCCCCCCC(=O)[O-].[Na+] [ELV-N32-Na, sodium (14Z,17Z,20R,21E,23E,25Z,27S,29Z)-20,27-dihydroxydotriaconta-14,17,21,23,25,29-hexaenoate]				elicited neuroprotection	attenuation of apoptosis	attenuated
CC/C=C\C[C@H](O)\C=C/C=C/C=C/[C@H](O)C/C=C\C/C=C\CCCCCCCCCCCCCCC(=O)OC [ELV-N34-Me, methyl (16Z,19Z,22R,23E,25E,27Z,29S,31Z)-22,29-dihydroxytetratriaconta-16,19,23,25,27,31-hexaenoate]				elicited neuroprotection		attenuated
CC/C=C\C[C@H](O)\C=C/C=C/C=C/[C@H](O)C/C=C\C/C=C\CCCCCCCCCCCCCCC(=O)[O-].[Na+] [ELV-N34-Na, sodium (16Z,19Z,22R,23E,25E,27Z,29S,31Z)-22,29-dihydroxytetratriaconta-16,19,23,25,27,31-hexaenoate]				elicited neuroprotection	attenuation of apoptosis	

— patent US11684599B2, “Very-long-chain polyunsaturated fatty acids, elovanoid hydroxylated derivatives, and methods of use” (Board of Supervisors of Louisiana State University and …, priority 2017, dated 2023)
